In the supplement of paper PMC10307832:

Assays:
Assay in all cases: relative viability (nuclei count vs DMSO), 5 days (fraction); higher = more cells survive
Venetoclax = compound: CC1(C)CCC(CN2CCN(c3ccc(C(=O)NS(=O)(=O)c4ccc(NCC5CCOCC5)c([N+](=O)[O-])c4)c(Oc4cnc5[nH]ccc5c4)c3)CC2)=C(c2ccc(Cl)cc2)C1 [Venetoclax]
How it was run: (§1)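 Cells of lung cancer lines were placed in 1536-well plates and kept overnight at 37 °C. Pinning then delivered five library-drug doses (not always all listed), spaced by √10, onto plates anchored with vehicle, and the cells were left 5 days without changing medium. One step fixed, permeabilised and stained them with Hoechst, and MetaXpress counted nuclei in 4× images. Viability, as a median over plates, is treated-well nuclei divided by vehicle-well nuclei, with acceptance only at control CV below 25% and at least one doubling.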

Selumetinib = compound: Cn1cnc2c(F)c(Nc3ccc(Br)cc3Cl)c(C(=O)NOCCO)cc21 [Selumetinib]
How it was run: as §1

Venetoclax + Decitabine = compound: CC1(C)CCC(CN2CCN(c3ccc(C(=O)NS(=O)(=O)c4ccc(NCC5CCOCC5)c([N+](=O)[O-])c4)c(Oc4cnc5[nH]ccc5c4)c3)CC2)=C(c2ccc(Cl)cc2)C1 [Venetoclax] + Nc1ncn([C@H]2C[C@H](O)[C@@H](CO)O2)c(=O)n1 [Decitabine] (partner 2 µM)
How it was run: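 Nuclei were stained with Hoechst during a one-step fixation (final 0.05% Triton X-100, 1% formaldehyde, 1 ug/ml Hoechst) carried out 5 days after dosing, then counted on 4× images. The cells, lung cancer lines in 1536-well plates, had been dosed by pin tool the day after seeding with one drug alone or a fixed anchor-drug dose plus five library-drug doses (not always all listed) in √10 steps. Relative viability is the nuclei count in treated wells divided by that in vehicle wells, and each value is the median of duplicate plates.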

Work on UMC-11 yielded a relative viability (Venetoclax; 0.01 µM) of 0.958, a relative viability (Venetoclax; 0.03162 µM) of 1 and a relative viability (Venetoclax; 0.1 µM) of 0.901. For the same cell line, the relative viability (Venetoclax; 0.3162 µM) was 0.944, the relative viability (Venetoclax; 1 µM) was 0.927 and the relative viability (Selumetinib; 0.02 µM) was 0.936. The relative viability (Selumetinib; 0.06325 µM) was 0.909, the relative viability (Selumetinib; 0.2 µM) was 1.01 and the relative viability (Selumetinib; 0.6325 µM) was 1.04. The relative viability (Venetoclax + Decitabine; first compound 0.01 µM) was 0.705, the relative viability (Venetoclax + Decitabine; first compound 0.03162 µM) was 0.595 and the relative viability (Venetoclax + Decitabine; first compound 0.1 µM) was 0.48. The relative viability (Venetoclax + Decitabine; first compound 0.3162 µM) was 0.686 and the relative viability (Venetoclax + Decitabine; first compound 1 µM) was 0.608.
